In patent US9656988B2 (Pharmacyclics LLC, priority 2013, dated 2017):
Where two headings read alike, the source gives them in different places.

Molecular target: BTK (Homo sapiens (Human), UniProt Q06187)
Experiment: Btk in vitro inhibitory activity (one of Method A TR-FRET, Method B electrophoretic mobility shift, Method C radiometric filter binding)
Format: biochemical
[1] = determined using one of the methods of Example 355a, 355b and 355c, read-out: BTK IC50

Sequence of BTK (Q06187 whole entry): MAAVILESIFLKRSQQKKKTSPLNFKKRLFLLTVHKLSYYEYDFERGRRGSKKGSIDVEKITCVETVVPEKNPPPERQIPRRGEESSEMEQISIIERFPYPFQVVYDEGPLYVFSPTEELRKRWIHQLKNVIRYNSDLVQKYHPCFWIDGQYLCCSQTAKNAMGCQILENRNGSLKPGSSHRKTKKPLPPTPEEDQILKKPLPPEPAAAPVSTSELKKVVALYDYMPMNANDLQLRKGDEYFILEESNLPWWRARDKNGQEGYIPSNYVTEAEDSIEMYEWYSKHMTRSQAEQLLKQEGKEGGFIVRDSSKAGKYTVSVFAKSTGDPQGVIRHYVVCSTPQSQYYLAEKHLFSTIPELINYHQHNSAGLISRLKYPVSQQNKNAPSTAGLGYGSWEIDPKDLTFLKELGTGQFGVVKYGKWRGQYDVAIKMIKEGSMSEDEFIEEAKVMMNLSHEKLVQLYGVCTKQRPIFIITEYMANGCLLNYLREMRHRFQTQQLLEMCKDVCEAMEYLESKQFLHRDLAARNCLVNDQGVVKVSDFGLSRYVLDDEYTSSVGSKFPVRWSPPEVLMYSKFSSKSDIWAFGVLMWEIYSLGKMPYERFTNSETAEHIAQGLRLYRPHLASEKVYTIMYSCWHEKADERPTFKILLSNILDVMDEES

SMILES	IC50 [1] [nM]	IC50 (Btk (IC50)) [nM]	IC50 (read-out: Btk (IC50)) [nM]
NC(=O)c1nnc(N2CCC[C@@H](NC(=O)N3CCOCC3)C2)nc1Nc1ccc(-c2ncco2)cc1 [Example 59, (R)—N-(1-(6-carbamoyl-5-(4-(oxazol-2-yl)phenylamino)-1,2,4-triazin-3-yl)piperidin-3-yl)morpholine-4-carboxamide]	10 to 100	–	–
NC(=O)c1nnc(N[C@@H]2CCCNC2)nc1Nc1ccc(C(=O)N2CCOCC2)cc1 [Example 61, (R)-5-(4-(morpholine-4-carbonyl)phenylamino)-3-(piperidin-3-ylamino)-1,2,4-triazine-6-carboxamide]	1000 to 10000	–	–
CN(C/C=C/C(=O)N1CCC[C@@H](Nc2nnc(C(N)=O)c(Nc3ccc(C(=O)N4CCOCC4)cc3)n2)C1)C1CC1 [Example 67, (R,E)-3-(1-(4-(cyclopropyl(methyl)amino)but-2-enoyl)piperidin-3-ylamino)-5-(4-(morpholine-4-carbonyl)phenylamino)-1,2,4-triazine-6-carboxamide]	< 10	–	–
NC(=O)c1nnc(N[C@@H]2CCNC2)nc1Nc1ccc(C(=O)N2CCOCC2)cc1 [Example 69, (R)-5-(4-(morpholine-4-carbonyl)phenylamino)-3-(pyrrolidin-3-ylamino)-1,2,4-triazine-6-carboxamide]	10 to 100	–	–
CN(C/C=C/C(=O)N1CC[C@@H](Nc2nnc(C(N)=O)c(Nc3ccc(C(=O)N4CCOCC4)cc3)n2)C1)C1CC1 [Example 71, (R,E)-3-(1-(4-(cyclopropyl(methyl)amino)but-2-enoyl)pyrrolidin-3-ylamino)-5-(4-(morpholine-4-carbonyl)phenylamino)-1,2,4-triazine-6-carboxamide]	10 to 100	–	–
C=CC(=O)N1CCC[C@@H](N(C)c2cnc(C(N)=O)c(Nc3ccc(C(=O)N4CCOCC4)cc3)n2)C1 [Example 74, (R)-5-((1-acryloylpiperidin-3-yl)(methyl)amino)-3-(4-(morpholine-4-carbonyl)phenylamino)pyrazine-2-carboxamide]	< 10	–	< 10
CN(C)C/C=C/C(=O)N1CCC[C@@H](N(C)c2cnc(C(N)=O)c(Nc3ccc(C(=O)N4CCOCC4)cc3)n2)C1 [Example 75, (R,E)-5-((1-(4-(dimethylamino)but-2-enoyl)piperidin-3-yl)(methyl)amino)-3-(4-(morpholine-4-carbonyl)phenylamino)pyrazine-2-carboxamide]	< 10	–	–
Cc1cc(Nc2cc(N3CCC[C@@H](NC(=O)c4ccc(C(C)(C)C)cc4)C3)cnc2C(N)=O)sn1 [Example 77, (R)-5-(3-(4-tert-butylbenzamido)piperidin-1-yl)-3-(3-methylisothiazol-5-ylamino)picolinamide]	10 to 100	–	–
COc1ccc(NC(=O)N[C@@H]2CCCN(c3nnc(C(N)=O)c(Nc4ccc(C(=O)N5CCOCC5)cc4)n3)C2)cc1 [Example 80, (R)-3-(3-(3-(4-methoxyphenyl)ureido)piperidin-1-yl)-5-(4-(morpholine-4-carbonyl)phenylamino)-1,2,4-triazine-6-carboxamide]	10 to 100	10 to 100	–
CN(C)C(=O)N[C@@H]1CCCN(c2nnc(C(N)=O)c(Nc3ccc(C(=O)N4CCOCC4)cc3)n2)C1 [Example 81, (R)-3-(3-(3,3-dimethylureido)piperidin-1-yl)-5-(4-(morpholine-4-carbonyl)phenylamino)-1,2,4-triazine-6-carboxamide]	10 to 100	10 to 100	–
CC(C)C1CCN(C(=O)N[C@@H]2CCCN(c3nnc(C(N)=O)c(Nc4ccc(C(=O)N5CCOCC5)cc4)n3)C2)CC1 [Example 82, (R)-3-(3-(4-isopropylpiperidine-1-carboxamido)piperidin-1-yl)-5-(4-(morpholine-4-carbonyl)phenylamino)-1,2,4-triazine-6-carboxamide]	10 to 100	10 to 100	–
NC(=O)c1nnc(N2CCC[C@@H](NC(=O)C(=O)N3CCCCC3)C2)nc1Nc1ccc(C(=O)N2CCOCC2)cc1 [Example 83, (R)-5-(4-(morpholine-4-carbonyl)phenylamino)-3-(3-(2-oxo-2-(piperidin-1-yl)acetamido)piperidin-1-yl)-1,2,4-triazine-6-carboxamide]	100 to 1000	100 to 1000	–

More lines, main results first:

IC50 [1] [nM]	IC50 (Btk (IC50)) [nM]	SMILES	IC50 (read-out: Btk (IC50)) [nM]
100 to 1000	–	CC(C)(C)OC(=O)N1CCC[C@@H](Nc2nnc(C(N)=O)c(Nc3ccc(C(=O)N4CCOCC4)cc3)n2)C1 [Example 60, (R)-tert-butyl 3-(6-carbamoyl-5-(4-(morpholine-4-carbonyl)phenylamino)-1,2,4-triazin-3-ylamino)piperidine-1-carboxylate]	–
10 to 100	–	CC(C)(C)c1ccc(C(=O)N2CCC[C@@H](Nc3nnc(C(N)=O)c(Nc4ccc(C(=O)N5CCOCC5)cc4)n3)C2)cc1 [Example 62, (R)-3-(1-(4-tert-butylbenzoyl)piperidin-3-ylamino)-5-(4-(morpholine-4-carbonyl)phenylamino)-1,2,4-triazine-6-carboxamide]	–
< 10	–	CCC(=O)N1CCC[C@@H](Nc2nnc(C(N)=O)c(Nc3ccc(C(=O)N4CCOCC4)cc3)n2)C1 [Example 63, (R)-5-(4-(morpholine-4-carbonyl)phenylamino)-3-(1-propionylpiperidin-3-ylamino)-1,2,4-triazine-6-carboxamide]	–
< 10	–	NC(=O)c1nnc(N[C@@H]2CCCN(C(=O)C3CC3)C2)nc1Nc1ccc(C(=O)N2CCOCC2)cc1 [Example 64, (R)-3-(1-(cyclopropanecarbonyl)piperidin-3-ylamino)-5-(4-(morpholine-4-carbonyl)phenylamino)-1,2,4-triazine-6-carboxamide]	–
< 10	–	C=CC(=O)N1CCC[C@@H](Nc2nnc(C(N)=O)c(Nc3ccc(C(=O)N4CCOCC4)cc3)n2)C1 [Example 65, (R)-3-(1-acryloylpiperidin-3-ylamino)-5-(4-(morpholine-4-carbonyl)phenylamino)-1,2,4-triazine-6-carboxamide]	–
< 10	–	CN(C)C/C=C/C(=O)N1CCC[C@@H](Nc2nnc(C(N)=O)c(Nc3ccc(C(=O)N4CCOCC4)cc3)n2)C1 [Example 66, (R,E)-3-(1-(4-(dimethylamino)but-2-enoyl)piperidin-3-ylamino)-5-(4-(morpholine-4-carbonyl)phenylamino)-1,2,4-triazine-6-carboxamide]	–
100 to 1000	–	CC(C)(C)OC(=O)N1CC[C@@H](Nc2nnc(C(N)=O)c(Nc3ccc(C(=O)N4CCOCC4)cc3)n2)C1 [Example 68, (R)-tert-butyl 3-(6-carbamoyl-5-(4-(morpholine-4-carbonyl)phenylamino)-1,2,4-triazin-3-ylamino)pyrrolidine-1-carboxylate]	–
< 10	–	CC(C)(C)c1ccc(C(=O)N[C@@H]2CCCN(c3cnc(C(N)=O)c(Nc4ccc(C(=O)N5CCOCC5)cc4)n3)C2)cc1 [Example 73, (R)-5-(3-(4-tert-butylbenzamido)piperidin-1-yl)-3-(4-(morpholine-4-carbonyl)phenylamino)pyrazine-2-carboxamide]	–
100 to 1000	–	CC(C)(C)c1ccc(C(=O)N[C@@H]2CCCN(c3cnc(C(N)=O)c(Nc4ccc(C(=O)N5CCOCC5)cc4)c3)C2)cc1 [Example 76, (R)-5-(3-(4-tert-butylbenzamido)piperidin-1-yl)-3-(4-(morpholine-4-carbonyl)phenylamino)picolinamide]	–
10 to 100	10 to 100	CC(C)(C)c1ccc(NC(=O)N[C@@H]2CCCN(c3nnc(C(N)=O)c(Nc4ccc(C(=O)N5CCOCC5)cc4)n3)C2)cc1 [Example 79, (R)-3-(3-(3-(4-tert-butylphenyl)ureido)piperidin-1-yl)-5-(4-(morpholine-4-carbonyl)phenylamino)-1,2,4-triazine-6-carboxamide]	–
